Laboratory results reported in patent US10201523B2, “Use of wilforlide A for overcoming chemotherapy resistance” (WESTERN UNIVERSITY OF HEALTH SCIENCES, priority 2013, dated 2019).
Where “and” joins values, the source holds several entries; their conditions need not be identical. Equal entries are not always repeated.

Tests used:
[1] = tested on: PC3-TxR; assay: SRB cell viability assay, 72 h wilforlide A dose-response; type: cell-based, human; details: for A at 565 nm: background = 0.044
Experimental: The determination of the wilforlide A IC50. The IC50 for wilforlide A was determined in vitro for the purpose of identifying wilforlide A concentrations that could be used for determining its chemosensitizing effect (CE) in cell cultures of the docetaxel-resistant prostate cancer line PC3-TxR (Obtained from Prof. Evan T. Keller, University of Michigan).
Post-recovery, the plating media was aspirated from the cell cultures, and replaced with 50 μl per well of RPMI containing a designated concentration of wilforlide A. Then, the cells were incubated in the presence of the wilforlide A media for 72 hours. The 50 μl wilforlide A aliquots were prepared by making 1:3 serial dilutions of a wilforlide A stock solution (0.5 mg/ml in DMSO) to with concentrations ranging from 1×10^2 to 1×10^−3 μg/ml.

[2] = tested on: PC3-TxR; assay: SRB cell viability assay, docetaxel with/without wilforlide A pretreatment; type: cell-based, human; details: PC3-TxR (docetaxel-resistant); 0.6-5.0 μg/ml pretreatment
[3] = tested on: DU145-TxR; assay: as above; type: cell-based; details: DU145-TxR (docetaxel-resistant); 2.5 μg/ml pretreatment
Excerpt: FIG. 4 summarizes the data of Tables 18 and 19 in a graphical format.

[4] = tested on: K562/Dox; assay: SRB cell viability assay, daunorubicin with/without wilforlide A pretreatment; type: cell-based; details: K562/Dox (daunorubicin-resistant); 2.5 μg/ml pretreatment
Excerpt: Wilforlide A sensitizes the daunorubicin-resistant myelogenous leukemia line K562/Dox, to daunorubicin. […] FIG. 5 summarizes the data of Tables 20 and 21 in a graphical format.

[5] = tested on: SkBr3-TxR; assay: SRB cell viability assay, lapatinib with/without wilforlide A pretreatment; type: cell-based; details: SkBr3-TxR (lapatinib-resistant); 2.5 μg/ml pretreatment
[6] = tested on: Bt474-TxR; assay: as above; type: cell-based; details: BT474-TxR (lapatinib-resistant); 2.5 or 25 μg/ml pretreatment
[7] = Maximum tolerated dose study, single and multiple dose (sdMTD, mdMTD); type: in vivo; details: single and multiple (daily, 7 days) dose, CD-1 mice
Experimental: Maximum tolerated dose (MTD)s of wilforlide A were determined for single MTD (sdMTD) and multiple dose MTD (mdMTD) protocols. […] A seven day-long sdMTD study was performed in which the single dose was administered on day one. A seven day-long mdMTD study was also performed in which wilforlide was administered daily.
(§1) The administration routes used in these studies were intravenous (i.v.), oral gavage (p.o.), and intraperitoneal (i.p.) administration. […] More specifically, working concentrations of wilforlide A were prepared by: (i) dissolving wilforlide A inDMSO at a concentration of 3 mg/ml at 80° C. for use with i.p. administration; (ii) dissolving wilforlide A in Capmul™ at a concentration of 3 mg/ml for use with p.o. administration; and (iii) dissolving wilforlide A inDMSO at a concentration of 1.5 mg/ml at 80° C., and then diluted ten times in 40% HBCD (w/v) for use with i.v. administration. […] Thus, the MTD study was started with these doses.
For each dose regimen tested, 12 CD-1 mice (6 males and 6 females) received appropriate volume of each wilforlide A preparation. The mice were housed with food and water ad libitum. All mice were monitored for the four hour period that immediately followed wilforlide A administration for indications of acute toxicity, as well as monitored at least 3 times daily for one week for indications of delayed toxicity. The mice were also weighed 24 hours post treatment as well as every other day during the week-long study.

[8] = Pharmacokinetics of wilforlide A in mice (plasma, HPLC-MS/MS); type: in vivo; details: CD-1 mice; for Cmax: plasma; for T1/2: terminal elimination
Experimental: as §1
To determine the pharmacokinetics of wilforlide A in mice, wilforlide A was formulated for i.p., p.o., and i.v. administration as describe above, for doses of 6, 30, and 1.2 mg/kg, respectively. Four CD-1 mice were sacrificed prior to wilforlide A administration and at: (i) 5, 10, 15, 20, 30, and 60 min after i.p. administration; (ii) 2, 5, 10, 15, 20, and 30 min after p.o. administration; and (iii) 1, 2, 3, and 4 hours after i.v. administration. At each time point, blood was drawn via heart puncture and plasma was separated by a five min centrifution at 10000 rpm. Plasma wilforlide A concentrations were measured using a validated HPLC-MS/MS method. The peak drug concentration (Cmax) and time to peak drug concentration (Tmax) were read directly from the plasma concentration time course data, while the terminal elimination half-life (T1/2) was calculated to be 0.693/Ke, where Ke was the terminal phase elimination rate. A-C, respectfully.

[9] = tested on: PC3-TxR cell tumors; assay: In vivo tumor xenograft study, chemosensitizing effect with docetaxel; set-up: species or system SCID mice
Excerpt: To perform this study, tumors were caused to form in fifty six severe four to six week-old, severe combined immunodeficient (SCID) male mice (Taconic Farms, Inc. Oxnard, Calif.) that weighed from 15 to 20 g were obtained and housed in cages with HEPA-filtered air (12-hr light/dark cycle) by subcutaneously injecting PC3-TxR cells in the mice. To prepare the cells for injection, the cells were suspended in a 1:1 mixture of Matrigel (BC Biosciences, Franklin Lakes, N.J., U.S.A.) and RPMI 1640 (Mediatech, Manassas, Va., or Life Technologies, Grand Island, N.Y.). Then the cells were subcutaneously implanted into planks of mice via injection. Mice that had consistently shown tumor growth for fourteen days following the injection of cells were used in the tumor studies. More specifically, these studies were initiated when the xenografted tumors reached a tumor size of about 120 mm^3, calculated by the formula for a semiepplipoid, i.e., Volume=Width2×(Length/2).

[10] = Water solubility of wilforlide A; type: physicochemical
[11] = tested on: PC3; assay: SRB cell viability assay, docetaxel with/without wilforlide A pretreatment; details: PC3 (docetaxel-sensitive); 0.6, 1.25 or 2.5 μg/ml pretreatment
Experimental: Following the 72 hour wilforlide A treatment, a sulforhodamine B (SRB) assay was used to quantitate living cells. To perform the assay, the wilforlide A media was aspirated from each well, and replaced with a 10% solution of cold trichloroacetic acid (TCA) (Cat #: T6399, purchased from Sigma-Aldrich), and incubated for one hour at 4° C. After the TCA incubation, the TCA solution was aspirated, and the cells were washed five times with tap water. After removing the last wash, the plates were left with lids off at room temperature until the surfaces were dry, which took one to two hours. Then 50 μl of a 0.4% solution of sul-forhodamine B (SRB) sodium salt (Cat #: S9012, purchased from Sigma-Aldrich) was added to each well and the plates were incubated at room temperature for 20 to 30 minutes. Afterwards, the wells were washed five times with a 1% acetic acid solution in 10 mM TRIS base (Cat #: 161-0719, purchased from Bio-Rad Laboratories, Hercules, Calif.). The plates were subsequently left to dry for several hours or overnight. SRB that remained in the dried wells was solubilized by adding 100 μl of SRB solubilization solution (10 mM TRIS base) to each well, and placing the plates either on a gently-moving shaker or letting the plates remain stationary at room temperature until the SRB dissolves, which takes about five to ten minutes. The amount of SRB in each well, which correlated directly to the number of living cells at fixation, was determined spectrophotometrically at an absorbance of 565 nm by a microplate reader.
In these comparisons, the in vitro IC50 of a tested chemotherapeutic drug (D) in cell culture was compared to the drug's IC50 when drug treatment followed pretreatment of the cells with wilforlide A (Purchased from PI & PI Technology Inc. of Guangzhou, China or the National Institutes for Food and Drug Control in Beijing, China).
Triplicate wells were assigned to each experimental condition tested, and a 24 hour recovery period for the cells following the seeding of the wells was allowed. During the recovery period, the cells were incubated at 37° C. and 5% CO2.
At the end of the two hour pre-treatment period, 50 μl aliquots of the desired chemotherapeutic drug RPMI medium were added according to the amounts provided in Table 2.
After adding the various doses of chemotherapeutic drugs, as described above, the cells were incubated for an additional 72 hours under the same temperature and atmospheric conditions used for the pre-treatment step.
The cells were then incubated for 72 hours at 37° C. and 5% CO2. After the 72 hour incubation, sulforhodamine B (SRB) assays were performed as described in Example 1 to quantitate living cells.

Structure (SMILES): CC1(C)[C@@H](O)CC[C@]2(C)[C@H]3CC=C4[C@@H]5C[C@@]6(C)C[C@H](OC6=O)[C@]5(C)CC[C@@]4(C)[C@]3(C)CC[C@@H]12 [wilforlide A, 3-epiabruslactone A]
- % viable ([1]; wilforlide A 0.001 μg/ml 72 h): 100.0%
- mean A ([1]; wilforlide A 0.001 μg/ml 72 h): 2.618
- A at 565 nm ([1]; wilforlide A 0.001 μg/ml 72 h): 2.599 and 2.624 and 2.607 and 2.635 and 2.593 and 2.646
- % viable ([1]; wilforlide A 0.1 μg/ml 72 h): 99.6%
- mean A ([1]; wilforlide A 0.1 μg/ml 72 h): 2.606
- A at 565 nm ([1]; wilforlide A 0.1 μg/ml 72 h): 2.611 and 2.592 and 2.610 and 2.617 and 2.615
- % viable ([1]; wilforlide A 0.333 μg/ml 72 h): 100.9%
- mean A ([1]; wilforlide A 0.333 μg/ml 72 h): 2.642
- A at 565 nm ([1]; wilforlide A 0.333 μg/ml 72 h): 2.645 and 2.618 and 2.661 and 2.646 and 2.664 and 2.617
- % viable ([1]; wilforlide A 1 μg/ml 72 h): 101.5%
- mean A ([1]; wilforlide A 1 μg/ml 72 h): 2.657
- A at 565 nm ([1]; wilforlide A 1 μg/ml 72 h): 2.626 and 2.629 and 2.755 and 2.658 and 2.659 and 2.616
- % viable ([1]; wilforlide A 3.33 μg/ml 72 h): 77.7%
- mean A ([1]; wilforlide A 3.33 μg/ml 72 h): 2.033
- A at 565 nm ([1]; wilforlide A 3.33 μg/ml 72 h): 2.082 and 1.928 and 2.081 and 1.950 and 2.070 and 2.088
- % viable ([1]; wilforlide A 10 μg/ml 72 h): 13.4%
- mean A ([1]; wilforlide A 10 μg/ml 72 h): 0.351
- A at 565 nm ([1]; wilforlide A 10 μg/ml 72 h): 0.399 and 0.358 and 0.348 and 0.325 and 0.320 and 0.357
- % viable ([1]; wilforlide A 33.3 μg/ml 72 h): 2.9%
- mean A ([1]; wilforlide A 33.3 μg/ml 72 h): 0.076
- A at 565 nm ([1]; wilforlide A 33.3 μg/ml 72 h): 0.096 and 0.072 and 0.074 and 0.073 and 0.069
- % viable ([1]; wilforlide A 100 μg/ml 72 h): 1.0%
- mean A ([1]; wilforlide A 100 μg/ml 72 h): 0.025
- A at 565 nm ([1]; wilforlide A 100 μg/ml 72 h): 0.023 and 0.024 and 0.033 and 0.027 and 0.018
- chemosensitizing effect to docetaxel [2]: sensitizes
- chemosensitizing effect to docetaxel [3]: sensitizes
- chemosensitizing effect to daunorubicin [4]: sensitizes
- chemosensitizing effect to lapatinib [5]: sensitizes
- chemosensitizing effect to lapatinib [6]: sensitizes
- tolerability in MTD study ([7]; 6 mg/kg i.p.): well tolerant
- tolerability in MTD study ([7]; 30 mg/kg p.o.): well tolerant
- tolerability in MTD study ([7]; […] i.v.): well tolerant
- Cmax ([8]; i.p. 6 mg/kg): 750 ng/mL
- Cmax ([8]; p.o. 30 mg/kg): 30 ng/mL
- T1/2 ([8]; i.p. 6 mg/kg): 41.0 min
- T1/2 ([8]; i.v. […]): 11.2 min
- T1/2 ([8]; p.o. 30 mg/kg): 25.6 min
- tumor growth ([9]; Group 3: docetaxel 20 mg/kg i.v. weekly + wilforlide A […] i.v. weekly + 6 mg/kg i.p. daily, vs other groups): significant retardation of tumor growth
- tumor growth ([9]; wilforlide A alone (Groups 6, 7)): did not significantly inhibit the tumor growth
- effect on docetaxel's anti-tumor effect ([9]; wilforlide A with docetaxel 20 mg/kg i.v.): significantly enhanced docetaxel's anti-tumor effect
- water solubility [10]: poorly water soluble
- chemosensitizing effect to docetaxel [11]: does not significantly enhance the sensitivity
